In article PMC11676982, “Heterotropic Activation of Cytochrome P450 3A4 by Perillyl Alcohol” (Pharmaceutics, 2024):

Columns and labels:
rCYP3A4 = target: T1, rCYP3A4 (Homo sapiens, UniProt P08684); assay: Enzyme activity assay using rCYP3A4 with or without cytochrome b5 (MDZ 1′-hydroxylation); type: biochemical
T1 construct: host or cells: baculovirus-transfected insect cells
Method: Incubation mixtures (final volume, 200 μL) contained 0.1 M PPB (pH 7.4), 50 pmol/mL rCYP3A4 with or without cytochrome b5, 1 mM NADPH, 5 μM MDZ, and POH (0–100 μM). After preincubating for 5 min, the reactions were initiated by adding 1 mM NADPH and incubated for 10 min. […] The experiment was performed using three separate samples.

CYP2A6 [1] = target: T2, CYP2A6 (Homo sapiens, UniProt P11509); assay: Direct CYP inhibition assay in pooled HLMs, CYP2A6 (coumarin); type: in vitro ADME; conditions: pooled HLMs 0.2 mg/mL; substrate coumarin 5 μM; 10 min; 95% CI in parentheses; read-out: IC50 against CYP2A6
T2 sequence (P11509 1-494): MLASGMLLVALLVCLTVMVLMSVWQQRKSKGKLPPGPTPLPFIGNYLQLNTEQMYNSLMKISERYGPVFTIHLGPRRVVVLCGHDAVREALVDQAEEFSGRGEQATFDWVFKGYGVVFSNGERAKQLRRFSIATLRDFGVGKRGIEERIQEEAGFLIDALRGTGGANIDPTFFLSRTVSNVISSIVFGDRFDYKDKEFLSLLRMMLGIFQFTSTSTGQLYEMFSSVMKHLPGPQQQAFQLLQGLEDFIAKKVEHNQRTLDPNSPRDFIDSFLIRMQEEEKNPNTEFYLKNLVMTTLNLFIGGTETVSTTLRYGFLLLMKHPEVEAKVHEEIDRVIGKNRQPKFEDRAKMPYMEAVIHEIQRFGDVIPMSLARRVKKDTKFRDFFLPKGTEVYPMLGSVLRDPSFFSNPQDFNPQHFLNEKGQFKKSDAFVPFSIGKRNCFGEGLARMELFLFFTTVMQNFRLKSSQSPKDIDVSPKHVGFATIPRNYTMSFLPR

CYP2A6 [2] = target: T2, CYP2A6; assay: biochemical
Method: A 5 min pre-incubation was performed prior to initiating reactions with the addition of 1 mM NADPH. After incubation at 37 °C for 10 min, 200 μL of ice-cold acetonitrile containing 100 nM carbamazepine as an internal standard was added to terminate the reaction. The samples were agitated and centrifuged at 4 °C for 20 min at 3000× g. The supernatants were transferred to a 96-well plate for LC-MS/MS analysis. The experiment was performed using three separate samples.
Data acquired from the evaluation of enzyme inhibition using various concentrations of substrates and test compounds were fit to different models (competitive, noncompetitive, uncompetitive, or mixed), and inhibition constant (Ki) and goodness of fit values were obtained using GraphPad Prism. The appropriate type of inhibition was selected based on statistical goodness of fit tests including Akaike’s information criterion (AICc) with correction for small sample size and the standard deviation of the residuals (Sy.x).

CYP2B6 = target: T3, CYP2B6 (Homo sapiens, UniProt P20813); assay: Metabolism-dependent inhibition assay (IC50 shift) in pooled HLMs, CYP2B6; conditions: substrate bupropion; for IC50: CYP2B6, pooled HLMs, 95% CI in parentheses
T3 sequence (P20813 1-491): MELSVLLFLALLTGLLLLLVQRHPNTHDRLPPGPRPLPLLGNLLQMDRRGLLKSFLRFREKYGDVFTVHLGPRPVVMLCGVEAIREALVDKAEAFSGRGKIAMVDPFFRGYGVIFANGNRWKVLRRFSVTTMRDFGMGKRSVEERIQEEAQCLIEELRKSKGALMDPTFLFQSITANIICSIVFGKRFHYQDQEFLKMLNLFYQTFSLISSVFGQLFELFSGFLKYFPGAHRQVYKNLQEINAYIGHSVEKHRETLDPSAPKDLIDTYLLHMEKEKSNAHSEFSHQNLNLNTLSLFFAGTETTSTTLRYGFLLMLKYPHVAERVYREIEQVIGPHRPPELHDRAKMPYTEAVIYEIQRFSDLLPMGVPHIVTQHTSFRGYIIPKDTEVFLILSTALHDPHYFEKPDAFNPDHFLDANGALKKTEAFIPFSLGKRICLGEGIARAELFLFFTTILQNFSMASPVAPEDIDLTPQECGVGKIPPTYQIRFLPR
Method: The experiments for determining metabolism-dependent inhibition were conducted utilizing a non-dilution method. […] The pre-incubation was initiated by the addition of 1 mM NADPH and incubation for 30 min. Subsequently, final incubation was performed with the addition of a substrate (5 μM coumarin or 50 μM bupropion) in the presence of NADPH for 10 min; the total volume of the mixture was 200 μL. […] Mixtures were subjected to centrifugation at 3000× g for 20 min at 4 °C, and the supernatants were analyzed using LC-MS/MS. The experiment was performed using three separate samples.
The CYP-mediated activities in the presence of test substances were expressed as percentages of the corresponding control values.

CYP2C9 = CYP2C9 (Homo sapiens, UniProt P11712); conditions: microsomes, 10 min, 50 μM, pH 7.4
CYP3A4 [3] = target: T4, CYP3A4 (Homo sapiens, UniProt P08684); assay: Kinetic parameters of MDZ hydroxylation in pooled HLMs in the presence of (−)-POH; type: in vitro ADME; conditions: 100 μM (−)-POH
Method: The supernatants obtained after centrifuging at 3000× g for 20 min at 4 °C were injected into LC-MS/MS for analysis. The experiment was performed using four separate samples.
Kinetic parameters were estimated using GraphPad Prism to plot activities against the log of MDZ concentration in the presence of (–)-POH.

CYP1A2 = target: T5, CYP1A2 (Homo sapiens, UniProt P05177); assay: Direct CYP inhibition assay in pooled HLMs, CYP1A2 (phenacetin); conditions: up to 50 μM
T5 sequence (P05177 1-516): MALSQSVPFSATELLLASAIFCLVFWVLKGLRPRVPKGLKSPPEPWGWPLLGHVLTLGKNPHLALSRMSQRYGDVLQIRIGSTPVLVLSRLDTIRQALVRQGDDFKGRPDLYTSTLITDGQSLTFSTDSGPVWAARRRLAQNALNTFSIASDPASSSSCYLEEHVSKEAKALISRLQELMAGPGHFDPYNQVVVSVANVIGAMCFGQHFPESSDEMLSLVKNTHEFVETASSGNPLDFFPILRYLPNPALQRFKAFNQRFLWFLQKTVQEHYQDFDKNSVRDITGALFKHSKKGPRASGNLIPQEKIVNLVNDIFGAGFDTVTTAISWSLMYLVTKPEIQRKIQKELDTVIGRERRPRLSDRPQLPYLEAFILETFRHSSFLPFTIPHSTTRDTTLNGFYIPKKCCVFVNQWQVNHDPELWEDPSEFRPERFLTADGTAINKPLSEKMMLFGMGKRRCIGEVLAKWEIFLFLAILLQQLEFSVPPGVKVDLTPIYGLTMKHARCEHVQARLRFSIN

CYP3A4 [4] = target: T4, CYP3A4; assay: Effect of POH on fimasartan (FMS) metabolism in pooled HLMs: CYP3A4-mediated BR-A-557 formation; type: in vitro ADME; conditions: FMS 30 μM, 100 μM (−)-POH
Method: The substrates were applied at a concentration that approximated their Km values. The reactions were preincubated for 5 min before being initiated with the addition of 1 mM NADPH. After 10 min incubation, reactions containing atorvastatin, buspirone, FMS, or nifedipine were terminated by the addition of 200 μL of ice-cold acetonitrile with 100 nM carbamazepine as an internal standard. For terminating reactions with donepezil or tadalafil, 200 μL of ice-cold methanol containing 0.5% (v/v) formic acid and 1 μM carbamazepine as internal standard was added to samples. […] The experiment was performed using three separate samples.

T4 sequence (P08684 whole entry): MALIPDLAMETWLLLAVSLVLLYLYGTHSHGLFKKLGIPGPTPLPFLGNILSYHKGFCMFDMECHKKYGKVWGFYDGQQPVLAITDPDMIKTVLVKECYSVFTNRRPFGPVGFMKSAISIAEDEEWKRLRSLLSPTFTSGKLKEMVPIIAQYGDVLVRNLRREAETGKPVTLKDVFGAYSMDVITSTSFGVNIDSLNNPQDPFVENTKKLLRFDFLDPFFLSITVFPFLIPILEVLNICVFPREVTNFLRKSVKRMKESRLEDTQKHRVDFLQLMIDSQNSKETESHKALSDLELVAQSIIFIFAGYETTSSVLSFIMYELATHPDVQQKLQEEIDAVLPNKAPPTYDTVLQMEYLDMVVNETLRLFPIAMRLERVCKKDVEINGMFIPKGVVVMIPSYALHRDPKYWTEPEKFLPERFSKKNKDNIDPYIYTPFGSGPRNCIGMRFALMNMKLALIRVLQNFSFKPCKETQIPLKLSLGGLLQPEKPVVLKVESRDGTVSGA
T1 sequence (P08684 whole entry): as above
CYP2C9, sequence (P11712 whole entry): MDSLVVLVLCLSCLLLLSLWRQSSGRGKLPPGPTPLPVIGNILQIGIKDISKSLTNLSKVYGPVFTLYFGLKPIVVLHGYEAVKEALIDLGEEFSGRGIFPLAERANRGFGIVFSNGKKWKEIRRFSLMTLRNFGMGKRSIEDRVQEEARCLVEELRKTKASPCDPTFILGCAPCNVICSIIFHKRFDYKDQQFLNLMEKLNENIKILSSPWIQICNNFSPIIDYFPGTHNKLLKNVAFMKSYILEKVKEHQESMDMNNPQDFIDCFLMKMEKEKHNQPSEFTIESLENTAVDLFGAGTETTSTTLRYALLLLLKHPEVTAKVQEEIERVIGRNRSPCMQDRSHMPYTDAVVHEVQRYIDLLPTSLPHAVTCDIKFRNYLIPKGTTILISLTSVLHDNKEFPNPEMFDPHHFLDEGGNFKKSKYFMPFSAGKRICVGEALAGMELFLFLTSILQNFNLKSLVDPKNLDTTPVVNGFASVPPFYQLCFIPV

Compound: C=C(C)[C@@H]1CC=C(CO)CC1 [(−)-POH, (−)-perillyl alcohol]
- Enhancement of MDZ 1′-hydroxylation (rCYP3A4; rCYP3A4 in the absence of cytochrome b5, POH 0–100 μM): No significant enhancement
- CYP3A4 activity for 1′-OH-MDZ formation compared with control without (−)-POH (rCYP3A4; rCYP3A4 in the presence of cytochrome b5, 100 μM (−)-POH, 5 μM MDZ): 1.57 fold
- IC50 (CYP2A6 [1]): 15.7 µM
- Ki (CYP2A6 [2]): 6.35 µM
- IC50 (CYP2B6; IC50, pre-incubation with NADPH, 30 min pre-incubation with NADPH): 13.4 µM
- IC50 (CYP2B6; IC50, pre-incubation without NADPH, 30 min pre-incubation without NADPH): 13.7 µM
- IC50 fold-shift, CYP2B6 (CYP2B6; IC50 without NADPH/IC50 with NADPH): 1.02
- CYP2C9 activity, % of the control level (CYP2C9): 64.2%
- Increase of Vmax/Km value of MDZ 1′-hydroxylation compared with absence of (−)-POH (CYP3A4 [3]): 2.67 fold
- Increase of Vmax/Km value of MDZ 1′-hydroxylation compared with absence of (−)-POH (CYP3A4 [3]; listed as POH): 2.7 fold
- Inhibition of CYP1A2 activity (CYP1A2): not significantly inhibited
- BR-A-557 formation from FMS relative to the control (CYP3A4 [4]): 1.29 fold
